# ChEMBL document CHEMBL5506041, “Identification of 1,3,4-Thiadiazolyl-Containing Thiazolidine-2,4-dione Derivatives as Novel PTP1B Inhibitors with Antidiabetic Activity” (J Med Chem, 2024)
# The source made the active and inactive calls. No cut-off for these calls is given here.
# Legend:
# [1] = target: T1, Tyrosine-protein phosphatase non-receptor type 1 (Homo sapiens, UniProt P18031); test: Inhibition of PTP1B (unknown origin) using DiFMUP as substrate incubated for 10 mins by fluorescence based analysis
# T1 sequence (P18031 whole entry): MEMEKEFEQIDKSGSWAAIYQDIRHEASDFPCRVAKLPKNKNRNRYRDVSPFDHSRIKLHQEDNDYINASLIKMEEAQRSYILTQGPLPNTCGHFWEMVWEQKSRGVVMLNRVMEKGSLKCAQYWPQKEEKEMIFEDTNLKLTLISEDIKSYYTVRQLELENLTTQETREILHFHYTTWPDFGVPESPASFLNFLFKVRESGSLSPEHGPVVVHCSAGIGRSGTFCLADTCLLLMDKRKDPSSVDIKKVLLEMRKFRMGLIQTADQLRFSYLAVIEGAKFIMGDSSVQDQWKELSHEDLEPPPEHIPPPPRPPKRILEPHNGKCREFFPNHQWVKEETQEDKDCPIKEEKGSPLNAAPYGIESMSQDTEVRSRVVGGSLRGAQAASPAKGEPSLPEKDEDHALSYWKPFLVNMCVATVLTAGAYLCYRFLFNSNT
# [2] = target: T2, Tyrosine-protein phosphatase non-receptor type 1 (Homo sapiens) (UniProt P18031); test: Potency index, ratio of lithocholic acid IC50 to test compound IC50 for inhibition of PTP1B (unknown origin) using DiFMUP as substrate incubated for 10 mins by fluorescence based analysis
# T2 sequence (whole entry): T1 sequence (P18031 whole entry)
# [3] = target: T2, Tyrosine-protein phosphatase non-receptor type 1 (Homo sapiens); test: Reversible inhibition of PTP1B1 (unknown origin) upto 1 uM by Lineweaver-burk plot analysis
# [4] = target: T2, Tyrosine-protein phosphatase non-receptor type 1 (Homo sapiens); test: Noncompetitive inhibition of PTP1B1 (unknown origin) upto 1 uM by Lineweaver-burk plot analysis
# L02 = test: Cytotoxicity activity against human L02 cells upto 32 uM by MTT assay; type: toxicity, cell-based; settings: l02, 32 µM
# HEK293 = test: Cytotoxicity activity against HEK293 cells upto 32 uM by MTT assay; type: toxicity, cell-based; settings: human, hek293, 32 µM
# HepG2 [5] = test: Inhibition of insulin resistance in palmitic acid-induced human HepG2 cells assessed as upregulation of IRS1 expression incubated for 24 hrs followed by insulin addition for 10 mins; type: functional, cell-based; settings: dose 2-20 µM
# HepG2 [6] = test: Inhibition of insulin resistance in palmitic acid-induced human HepG2 cells assessed as upregulation of AKT expression incubated for 24 hrs followed by insulin addition for 10 mins; type: functional, cell-based; settings: dose 2-20 µM
# Mus musculus [7] = test: Hypoglycemic activity in streptozotocin-induced C57/6J mouse model assessed as reduction in fasting blood glucose level at 25 to 50 mg/kg, ip administered once a week and fasted for 12 hrs; type: functional, organism-based; settings: dose 25-50 mg/kg
# Mus musculus [8] = test: Anti-diabetic activity in streptozotocin-induced C57/6J mouse model assessed as reduction in fasted blood glucose level at 50 mg/kg, ip preadministered with compound for 3 weeks followed by fasting for 12 hrs and measured after 120 mins post glucose administration by OGTT analysis; type: functional, organism-based; settings: time 518.0 hrs
# Mus musculus [9] = test: Anti-diabetic activity in streptozotocin-induced C57/6J mouse model assessed as reduction in total cholesterol level in serum at 25 to 50 mg/kg, ip administered for 4 weeks; type: functional, organism-based; settings: dose 25-50 mg/kg
# Mus musculus [10] = test: Anti-diabetic activity in streptozotocin-induced C57/6J mouse model assessed as reduction in triglyceride level in serum at 25 to 50 mg/kg, ip administered for 4 weeks; type: functional, organism-based; settings: dose 25-50 mg/kg
# Mus musculus [11] = test: Hypoglycemic activity in streptozotocin-induced C57/6J mouse model assessed as reduction in fasting blood glucose level at 50 mg/kg, ip administered once a week and fasted for 12 hrs; type: functional, organism-based
Structure (SMILES),IC50 [1],further results
O=C1NC(=O)/C(=C\c2ccc(C(=O)Nc3nnc(SCc4ccc(F)cc4)s3)cc2)S1,1.84 µM,–
O=C1NC(=O)/C(=C\c2ccc(C(=O)Nc3nnc(SCc4ccc([N+](=O)[O-])cc4)s3)cc2)S1,1.82 µM,–
CS(=O)(=O)c1ccc(CSc2nnc(NC(=O)c3ccc(/C=C4\SC(=O)NC4=O)cc3)s2)cc1,1.41 µM,–
O=C1NC(=O)/C(=C\c2ccc(C(=O)Nc3nnc(SCc4ccccc4F)s3)cc2)S1,1.85 µM,–
O=C1NC(=O)/C(=C/c2ccc(C(=O)Nc3nnc(SCc4cc(C(F)(F)F)cc(C(F)(F)F)c4)s3)cc2)S1,1.73 µM,–
Cc1ccc(CSc2nnc(NC(=O)c3ccc(/C=C4/SC(=O)NC4=O)cc3)s2)cc1,0.88 µM,–
COC(=O)c1ccccc1CSc1nnc(NC(=O)c2ccc(/C=C3/SC(=O)NC3=O)cc2)s1,1.21 µM,–
O=C1NC(=O)/C(=C\c2ccc(C(=O)Nc3nnc(SCc4ccccc4OC(F)(F)F)s3)cc2)S1,1.32 µM,–
O=C1NC(=O)/C(=C\c2ccc(C(=O)Nc3nnc(SCc4cccc(Cl)c4)s3)cc2)S1,1.64 µM,–
O=C1NC(=O)/C(=C\c2ccc(C(=O)Nc3nnc(SCc4cccc(C(F)(F)F)c4)s3)cc2)S1,1.07 µM,–
CC(C)(C)c1ccc(CSc2nnc(NC(=O)c3ccc(/C=C4\SC(=O)NC4=O)cc3)s2)cc1,1.35 µM,–
O=C1NC(=O)/C(=C/c2ccc(C(=O)Nc3nnc(SCc4ccc(-c5ccccc5)cc4)s3)cc2)S1,1.47 µM,–
O=C1NC(=O)/C(=C/c2ccc(C(=O)Nc3nnc(SCc4ccc(C(F)(F)F)cc4)s3)cc2)S1,0.91 µM,–
COC(=O)c1cccc(CSc2nnc(NC(=O)c3ccc(/C=C4/SC(=O)NC4=O)cc3)s2)c1,1.12 µM,–
C[C@H](CCC(=O)O)[C@H]1CC[C@H]2[C@@H]3CC[C@@H]4C[C@H](O)CC[C@]4(C)[C@H]3CC[C@]12C [LITHOCHOLIC ACID],9.62 µM,–
O=C1NC(=O)/C(=C\c2ccc(C(=O)Nc3nnc(SCc4ccc(Cl)cc4)s3)cc2)S1,1.39 µM,–
O=C1NC(=O)/C(=C/c2ccc(C(=O)Nc3nnc(SCc4ccc(F)cc4F)s3)cc2)S1,1.24 µM,–
O=C1NC(=O)/C(=C\c2ccc(C(=O)Nc3nnc(SCc4ccccc4-c4ccccc4)s3)cc2)S1,3.56 µM,–
Cc1cccc(CSc2nnc(NC(=O)c3ccc(/C=C4/SC(=O)NC4=O)cc3)s2)c1,3.85 µM,–
O=C1NC(=O)/C(=C\c2ccc(C(=O)Nc3nnc(SCc4ccc(Br)cc4)s3)cc2)S1,0.59 µM,–
O=C1NC(=O)/C(=C/c2ccc(C(=O)Nc3nnc(SCc4ccc(F)c(F)c4)s3)cc2)S1,0.75 µM,–
COc1cccc(CSc2nnc(NC(=O)c3ccc(/C=C4/SC(=O)NC4=O)cc3)s2)c1,3.22 µM,–

Structure (SMILES),IC50 [1],further results
O=C1NC(=O)/C(=C\c2ccc(C(=O)Nc3nnc(SCc4ccccc4Cl)s3)cc2)S1,2.91 µM,–
O=C1NC(=O)/C(=C\c2ccc(C(=O)Nc3nnc(SCc4cccc(Br)c4)s3)cc2)S1,0.89 µM,–
O=C1NC(=O)/C(=C/c2ccc(C(=O)Nc3nnc(SCc4ccc(F)c(Cl)c4)s3)cc2)S1,0.82 µM,–
O=C1NC(=O)/C(=C\c2ccc(C(=O)Nc3nnc(SCc4ccccc4C(F)(F)F)s3)cc2)S1,1.18 µM,–
O=C1NC(=O)/C(=C/c2ccc(C(=O)Nc3nnc(SCc4ccc5ccccc5c4)s3)cc2)S1,3.77 µM,–
O=C1NC(=O)/C(=C\c2ccc(C(=O)Nc3nnc(SCc4cccc([N+](=O)[O-])c4)s3)cc2)S1,3.76 µM,–
O=C1NC(=O)/C(=C\c2ccc(C(=O)Nc3nnc(SCc4ccc(OC(F)(F)F)cc4)s3)cc2)S1,0.89 µM,–
COC(=O)c1ccc(CSc2nnc(NC(=O)c3ccc(/C=C4/SC(=O)NC4=O)cc3)s2)cc1,0.65 µM,–
O=C1NC(=O)/C(=C\c2ccc(C(=O)Nc3nnc(SCc4cccc(OC(F)(F)F)c4)s3)cc2)S1,1.48 µM,–
O=C1NC(=O)/C(=C/c2ccc(C(=O)Nc3nnc(SCc4ccc(F)c(F)c4F)s3)cc2)S1,1.13 µM,–
Cc1ccccc1CSc1nnc(NC(=O)c2ccc(/C=C3/SC(=O)NC3=O)cc2)s1,4.68 µM,–
O=C1NC(=O)/C(=C\c2ccc(C(=O)Nc3nnc(SCc4ccccc4Br)s3)cc2)S1,1.87 µM,–
N#Cc1cccc(CSc2nnc(NC(=O)c3ccc(/C=C4/SC(=O)NC4=O)cc3)s2)c1,0.61 µM,–
N#Cc1ccc(CSc2nnc(NC(=O)c3ccc(/C=C4/SC(=O)NC4=O)cc3)s2)cc1,0.41 µM,Ratio IC50 [2]: 23.5; inhibition [3]: Active; inhibition [4]: Active; Activity (L02): Non-Toxic; Activity (HEK293): Non-Toxic; inhibition (HepG2 [5]): Dose-Dependent Effect; inhibition (HepG2 [6]): Dose-Dependent Effect; Activity (Mus musculus [7]): Active; Activity (Mus musculus [8]): Active; Activity (Mus musculus [9]): Active; Activity (Mus musculus [10]): Active
O=C1NC(=O)/C(=C/c2ccc(C(=O)Nc3nnc(SCc4ccc5ncccc5c4)s3)cc2)S1,0.98 µM,–
N#Cc1ccccc1CSc1nnc(NC(=O)c2ccc(/C=C3/SC(=O)NC3=O)cc2)s1,2.17 µM,–
O=C1NC(=O)/C(=C\c2ccc(C(=O)Nc3nnc(SCc4ccccc4[N+](=O)[O-])s3)cc2)S1,4.09 µM,–
O=C1NC(=O)/C(=C\c2ccc(C(=O)Nc3nnc(SCc4cccc(F)c4)s3)cc2)S1,2.08 µM,–
O=C1NC(=O)/C(=C/c2ccc(C(=O)Nc3nnc(SCc4ccc(F)cc4Cl)s3)cc2)S1,1.07 µM,–
O=C1NC(=O)/C(=C\c2ccc(C(=O)Nc3nnc(SCc4ccccc4)s3)cc2)S1,1.27 µM,–
C[C@H]1O[C@H](O[C@H]2[C@H](O)[C@@H](O)[C@@H](O[C@H]3[C@H](O)[C@@H](O)C(O)O[C@@H]3CO)O[C@@H]2CO)[C@H](O)[C@@H](O)[C@@H]1N[C@H]1C=C(CO)[C@@H](O)[C@H](O)[C@H]1O (some centres undefined),–,Activity (Mus musculus [11]): Active
